Drawing on ChEMBL document CHEMBL3826917, “Anti-inflammatory properties of pterocarpanquinone LQB-118 in mice” (Bioorg Med Chem, 2016), this text covers Activity, inhibition and inhibition in vivo for four compounds.

The source made the active and inactive calls. No cut-off for these calls is given here.

The test system of data set [1] is Mus musculus. Nature of the data set: Antiinflammatory activity in LPS-induced C57BL/6 mouse model of lung inflammation assessed as reduction in NF-kappaB activation at 10 mg/kg, ip administered 1 hr prior to LPS-challenge measured after 3 hrs by electrophoretic mobility shift assay. In kind it is functional, organism-based. In general terms: Mobility shift assays separate free from complexed probe on a gel.

For data set [2], the system named is Mus musculus. Nature of the data set: Antiinflammatory activity in LPS-induced C57BL/6 mouse model of lung inflammation assessed as reduction in keratinocyte-derived chemokine release in bronchoalveolar lavage fluid at 10 mg/kg, ip administered 1 hr prior to LPS-challenge measured after 3 hrs by ELISA. In kind it is functional, organism-based. A general note: In an ELISA, binding on a coated surface is turned into a signal by an enzyme label.

Data set [3] concerns Mus musculus. As to the kind of experiment: Antiinflammatory activity in LPS-induced C57BL/6 mouse model of lung inflammation assessed as reduction in TNF-alpha release in bronchoalveolar lavage fluid at 10 mg/kg, ip administered 1 hr prior to LPS-challenge measured after 3 hrs by ELISA. In kind it is functional, organism-based.
For a further data set, the system named is PBMC. As to the kind of experiment: Inhibition of LPS-induced TNF-alpha production in human PBMC at 1 to 100 uM administered prior to LPS-challenge measured after 2 hrs by ELISA. The class given is functional, cell-based.
The subject of data set [4] is Mus musculus. Nature of the data set: Toxicity in LPS-induced C57BL/6 mouse model of lung inflammation assessed as change in liver weight at 1 to 100 mg/kg, ip administered 1 hr prior to LPS-challenge measured after 3 hrs relative to control. To be noted: in vivo. The class given is organism-based.
The test system of data set [5] is Mus musculus. As to the kind of experiment: Toxicity in LPS-induced C57BL/6 mouse model of lung inflammation assessed as change in spleen weight at 1 to 100 mg/kg, ip administered 1 hr prior to LPS-challenge measured after 3 hrs relative to control. In kind it is organism-based. To be noted: in vivo.
Data set [6] relates to Mus musculus. Nature of the data set: Antiinflammatory activity in LPS-induced C57BL/6 mouse model of lung inflammation assessed as decrease in neutrophil infiltration in bronchoalveolar lavage fluid at 100 mg/kg, ip administered 1 hr prior to LPS-challenge measured after 3 hrs by Diff-Quik staining-based coulter particle counter method relative to vehicle-treated control. To be noted: C57BL/6, ip. The class given is functional.

Data set [7] deals with Mus musculus. As to the kind of experiment: Antiinflammatory activity in LPS-induced C57BL/6 mouse model of lung inflammation assessed as decrease in neutrophil infiltration in bronchoalveolar lavage fluid at 1 to 10 mg/kg, ip administered 1 hr prior to LPS-challenge measured after 3 hrs by Diff-Quik staining-based coulter particle counter method. In kind it is functional, organism-based.

The subject of data set [8] is Mus musculus. As to the kind of experiment: Antiinflammatory activity in LPS-induced C57BL/6 mouse model of lung inflammation assessed as decrease in neutrophil infiltration in bronchoalveolar lavage fluid at 10 mg/kg, ip administered 1 hr prior to LPS-challenge measured after 3 hrs by Diff-Quik staining-based coulter particle counter method. In kind it is functional, organism-based.

The test system of data set [9] is Mus musculus. Nature of the data set: Toxicity in LPS-induced C57BL/6 mouse model of lung inflammation assessed as change in liver weight at 10 mg/kg, ip administered 1 hr prior to LPS-challenge measured after 3 hrs relative to control. The class given is organism-based. To be noted: in vivo.
Data set [10] relates to Mus musculus. Nature of the data set: Toxicity in LPS-induced C57BL/6 mouse model of lung inflammation assessed as change in spleen weight at 10 mg/kg, ip administered 1 hr prior to LPS-challenge measured after 3 hrs relative to control. In kind it is organism-based. The following applies: in vivo.

In the case of `CC(=O)Oc1ccccc1C(=O)O`, the outcome in the data set with Mus musculus [1], in the data set with Mus musculus [2] and in the data set on Mus musculus [3] was Active.

With `CC(C)=CCC1=C(O)C(=O)c2ccccc2C1=O`, in the data set with PBMC, the inhibition entry was “inactive”.

In the case of `O=C1C2=C(C(=O)c3ccccc31)C1Oc3ccccc3C1CO2` (racemic), the outcome with Mus musculus [1], with Mus musculus [3] and in the data set on Mus musculus [7] was Active. Also, the Activity result in the data set on Mus musculus [4] and in the data set with Mus musculus [5] was “Non-toxic” in each case. The outcome in the data set with Mus musculus [2] was inactive. Besides, in the data set with Mus musculus [6], the inhibition in vivo at 100 mg/kg stood at 90%.

Consider `C[C@@H]1C[C@H]2[C@@H]3CCC4=CC(=O)C=C[C@]4(C)[C@@]3(F)[C@@H](O)C[C@]2(C)[C@@]1(O)C(=O)CO` [DEXAMETHASONE], for which the outcome in the data set with Mus musculus [8], in the data set with Mus musculus [2] and in the data set on Mus musculus [3] was Active. Also, the Activity entry with Mus musculus [9] and in the data set with Mus musculus [10] was “Toxic” throughout.

Usually inhibition in vivo stands for the share of the control response that was lost under treatment.
